Holding throughout (format): biochemical
The target in assay [1] is T1, ICE (interleukin-1β converting enzyme, Caspase-1) (Homo sapiens, UniProt P29466).
T1 sequence (P29466 120-297 limits assumed): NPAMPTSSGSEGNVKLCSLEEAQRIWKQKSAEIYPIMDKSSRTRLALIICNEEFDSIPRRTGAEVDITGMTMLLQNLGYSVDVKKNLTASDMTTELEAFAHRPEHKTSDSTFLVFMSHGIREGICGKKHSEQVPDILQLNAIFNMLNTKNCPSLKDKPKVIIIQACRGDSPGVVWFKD
T1 sequence (P29466 317-404 limits assumed): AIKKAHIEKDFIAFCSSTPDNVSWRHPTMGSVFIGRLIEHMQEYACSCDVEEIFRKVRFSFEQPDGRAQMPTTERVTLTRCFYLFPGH
The assay can be described thus: ICE Ki fluorescence assay (Ac-Tyr-Val-Ala-Asp-AMC hydrolysis). Particulars: ICE 0.24 nM, 15 μM Ac-Tyr-Val-Ala-Asp-AMC, reversible competitive model. How it is done: Substrate hydrolysis is monitored for 300 seconds by observing the fluorescence of released AMC using excitation at 380 nm and emission at 460 nm. Mean rates of substrate hydrolysis are evaluated by linear-regression analysis of the fluorescence vs time traces. To evaluate Ki, plots of percent inhibition vs inhibitor concentration are fit by non-linear regression to a reversible, competitive model: [formula]
Where the competition factor (1+[S]/KM)=2.

For assay [2], the target named is T1, ICE (interleukin-1β converting enzyme, Caspase-1). The experiment in a line: ICE Colorimetric Dose-Response (IC50) Assay. The conditions noted are these: ICE approx. 24 nM, 60 min preincubation, 50 μM Ac-Tyr-Val-Ala-Asp-pNA, 25° C. Here is the method: ICE Colorimetric Dose-Response (IC50) Assay
(§1) Diluted inhibitor stocks are prepared by two-fold serial dilution from a primary stock whose concentration is selected (based on screening results or on prior attempts at IC50 evaluation) to achieve approximately 95% inhibition in the most concentrated well. Aliquots of each dilution are transferred to a microtitre plate in triplicate.
(§2) ICE enzyme is diluted to approximately 24 nM in HGE buffer (100 mM HEPES pH 7.5, 0.5 mM EDTA, 20% glycerol, 0.1% Bovine Serum Albumin (BSA)), and activated by adding dithiothreitol (DTT) to a final concentration of 5 mM. The activated enzyme is then aliquoted into wells containing inhibitor or vehicle, and the plate is preincubated for 60 minutes at ambient temperature. Substrate (Ac-Tyr-Val-Ala-Asp-pNA) is added to each well to a final concentration of 50 μM, and plates are placed in the microtitre plate-reader thermostated to 25° C. Beginning 5 minutes after addition of substrate, absorbance (405 nm) of wells is monitored for 1 hour, and activity is calculated as the mean rate of change in absorbance during this interval.

A further assay has as its target T2, Ich-2 (Caspase-4) (Homo sapiens, UniProt P49662).
T2 sequence (P49662 81-270 limits assumed): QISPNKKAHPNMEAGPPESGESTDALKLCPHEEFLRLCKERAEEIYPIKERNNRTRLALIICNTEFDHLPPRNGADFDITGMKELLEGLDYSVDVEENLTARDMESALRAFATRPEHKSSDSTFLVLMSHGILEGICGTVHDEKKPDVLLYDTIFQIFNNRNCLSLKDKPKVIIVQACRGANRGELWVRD
T2 sequence (P49662 290-377 limits assumed): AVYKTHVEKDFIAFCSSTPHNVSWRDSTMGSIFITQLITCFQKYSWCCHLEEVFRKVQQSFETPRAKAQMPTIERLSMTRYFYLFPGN
The experiment in a line: Ich-2 (Caspase-4) Colorimetric Dose-Response (IC50) Assay. Particulars: enzyme 64 nM, substrate Ac-Leu-Glu-Val-Asp-pNA. Here is the method:
as §1, §2
Ich-2 (Caspase-4) Colorimetric Dose-Response (IC50) Assay
Inhibition of Ich-2 enzyme is assayed as described above for ICE, except that enzyme is used at 64 nM, and 60 µM of the Ich-2-specific substrate Ac-Leu-Glu-Val-Asp-pNA is used instead of the ICE substrate Ac-Tyr-Val-Ala-Asp-pNA.

Where “and” joins values, the source holds several entries; their conditions need not be identical. Equal values may be shown once.

Our source for the Ki and IC50 values is patent US20020156094A1, “Sulfonamide interleukin-1beta converting enzyme inhibitors” (Warner-Lambert Company, priority 1996, published 2002).

The Ki is the equilibrium dissociation constant of an inhibitor or competing ligand from its target. A low value points to higher affinity. In general, IC50 refers to the concentration needed to halve the response being measured. Low values mean greater potency in that assay, high ones weaker potency in that assay. As for `CC1(C)C2CC[C@]1(CS(=O)(=O)NCC(=O)C(CC(=O)O)NC(=O)OCc1ccccc1)C(=O)C2` (stereo partly drawn) [Example 2i, 3-Benzyloxycarbonylamino-5-(7,7-dimethyl-2-oxo-bicyclo[2.2.1]hept-1-(R)-ylmethanesulfonylamino)-4-oxo-pentanoic acid], the affinity in assay [1] corresponds to a Ki of 30.1 µM. Moreover, the 50% inhibitory concentration (IC50) is 25 µM in assay [2] and 59 µM against Ich-2 (Caspase-4).
In the same order, the values of `CC(C)C(NC(=O)C(CCC(=O)O)NC(=O)OCc1ccccc1)C(=O)NC(CC(=O)O)C(=O)CNS(=O)(=O)CCc1ccccc1` (stereo not shown) [Example 3b, 3-[2-(2-Benzyloxycarbonylamino-4-carboxy-butyrylamino)-3-methyl-butyrylamino]-4-oxo-5-(2-phenyl-ethanesulfonylamino)-pentanoic acid] are 0.013 µM, 0.025 µM and 4.2 µM.
In the same order, the values of `O=C(O)C[C@H](NC(=O)CN1CCc2ccccc2C1=O)C(=O)CNS(=O)(=O)CC12CCC(CC1)C2` [Example 5b, (S)-5-(Bicyclo[2.2.1]hept-1-ylmethanesulfonylamino)-4-oxo-3-[2-(1-oxo-3,4-dihydro-1H-isoquinolin-2-yl)-acetylamino]-pentanoic acid] are 20 µM, 165 µM and 252 µM.
In the same order, the values of `O=C(O)CC(NC(=O)OCc1ccccc1)C(=O)CNS(=O)(=O)CCC1CCCCC1` (stereo not shown) [Example 2g, 3-Benzyloxycarbonylamino-5-(2-cyclohexyl-ethanesulfonylamino)-4-oxo-pentanoic acid] are 33 µM, 136 µM and 314 µM.
`O=C(O)CC(NC(=O)OCc1ccccc1)C(=O)CNS(=O)(=O)c1cccc2ccccc12` (stereo not shown) [Example 2f, 3-Benzyloxycarbonylamino-5-(naphthalene-1-sulfonylamino)-4-oxo-pentanoic acid] returned a Ki in assay [1] of 22 µM. Also, the IC50 in assay [2] turned out to be 174 µM; at Ich-2 (Caspase-4), 1010 µM.
The corresponding values for `O=C(O)CC(NC(=O)OCc1ccccc1)C(=O)CNS(=O)(=O)CC1CCc2ccccc21` (stereo not shown) [Example 2j, 3-Benzyloxycarbonylamino-5-(indan-1-ylmethanesulfonylamino)-4-oxo-pentanoic acid] are 65 µM, 194 µM and 159 µM.
For `O=C(O)CC(NC(=O)OCc1ccccc1)C(=O)CNS(=O)(=O)CCc1ccccc1` (stereo not shown) [Example 2a, 3-Benzyloxycarbonylamino-4-oxo-5-(2-phenylethane-sulfonylamino)-pentanoic acid], in assay [1], the affinity, expressed as Ki, was 11 µM. For the same compound, the half-inhibitory concentration (IC50) in assay [2] amounted to 73 µM.
In the same order, the values of `CS(=O)(=O)NCC(=O)C(CC(=O)O)NC(=O)OCc1ccccc1` (stereo not shown) [Example 2e, 3-Benzyloxycarbonylamino-5-methanesulfonylamino-4-oxo-pentanoic acid] are 735 µM and 1830 µM.
Regarding `CC(C)C(NC(=O)C(CCC(=O)O)NC(=O)CCc1ccccc1)C(=O)NC(CC(=O)O)C(=O)CNS(=O)(=O)CC12CCC(CC1=O)C2(C)C` (stereo not shown) [Example 4d], the Ki in assay [1] was 0.0016 µM. The results for the IC50 (in assay [2]; against Ich-2 (Caspase-4)) were 0.003 µM and 1.6 µM, respectively.
The corresponding values for `O=C(O)CC(NC(=O)OCc1ccccc1)C(=O)CNS(=O)(=O)CCc1cccc2ccccc12` (stereo not shown) [Example 2h, 3-Benzyloxycarbonylamino-5-(2-naphthalen-1-yl-ethanesulfonylamino)-4-oxo-pentanoic acid] are 16 µM, 55.6 µM and 199 µM.
Compound `CC(=O)NC(C(=O)NC(CC(=O)O)C(=O)CNS(=O)(=O)C[C@]12CCC(CC1=O)C2(C)C)C(C)C` (stereo partly drawn) [Example 4a, 3-(2-Acetylamino-3-methyl-butyrylamino)-5-(7,7-dimethyl-2-oxo-bicyclo [2.2.1]hept-1-(S)-ylmethanesulfonylamino)-4-oxo-pentanoic acid] returned a Ki in assay [1] of 0.27 µM. The compound also returned an IC50 in assay [2] of 7.6 µM.
With `CC(NC(=O)C(NC(=O)OCc1ccccc1)C(C)C)C(=O)NC(CC(=O)O)C(=O)CNS(=O)(=O)CC12CCC(CC1=O)C2(C)C` (stereo not shown) [Example 4c, 3-[2-(2-Benzyloxycarbonylamino-3-methyl-butyrylamino)-propionylamino]-5-(7,7-dimethyl-2-oxo-bicyclo[2.2.1]hept-1-ylmethanesulfonylamino)-4-oxo-pentanoic acid], the Ki in assay [1] came out at 0.001 µM. In addition, the IC50 in assay [2] amounted to 0.015 µM; against Ich-2 (Caspase-4), 8.5 µM.
The corresponding values for `CC(=O)NC(Cc1ccc(O)cc1)C(=O)NC(CCC(=O)O)C(=O)NC(C(=O)NC(CC(=O)O)C(=O)CNS(=O)(=O)CC12CCC(CC1=O)C2(C)C)C(C)C` (stereo not shown) [Example 4e, 3-(2-{2-[2-Acetylamino-3-(4-hydroxy-phenyl)-propionylamino]-4-carboxy-butyrylamino}-3-methyl-butyrylamino)-5-(7,7-dimethyl-2-oxo-bicyclo[2.2.1]hept-1-ylmethanesulfonylamino)-4-oxo-pentanoic acid] are 0.00011 µM, 0.002 µM and 0.7 µM.
Take `O=C(O)C[C@H](NC(=O)CN1CCc2ccccc2C1=O)C(=O)CNS(=O)(=O)CCc1ccccc1` [Example 5c, (S)-4-Oxo-3-[2-(1-oxo-3,4-dihydro-1H-isoquinolin-2-yl)-acetylamino]-5-(2-phenyl-ethanesulfonylamino)-pentanoic acid]: the inhibition constant Ki in assay [1] worked out at 45 µM. Besides, the concentration for half-maximal inhibition (IC50) in assay [2] amounted to 371 µM.
For the compound `CC(C)C(NC(=O)C(CCC(=O)O)NC(=O)CCc1ccccc1)C(=O)NC(CC(=O)O)C(=O)CNS(=O)(=O)CCc1ccccc1` (stereo not shown) [Example 3c, 3-{2-[4-Carboxy-2-(3-phenyl-propionylamino)-butyrylamino]-3-methyl-butyrylamino}-4-oxo-5-(2-phenyl-ethanesulfonylamino)-pentanoic acid], in assay [1], the inhibition constant (Ki) worked out at 0.0051 µM. For the same compound, the 50% inhibitory concentration (IC50) is 0.009 µM in assay [2] and 3.4 µM on Ich-2 (Caspase-4).
For `O=C(O)CC(NC(=O)OCc1ccccc1)C(=O)CNS(=O)(=O)Cc1ccccc1` (stereo not shown) [Example 2c, 3-Benzyloxycarbonylamino-4-oxo-5-phenylmethanesulfonyl-amino-pentanoic acid], the Ki in assay [1] is 18 µM and 14 µM. The compound also yielded an IC50 in assay [2] of 168 µM.
The compound `O=C(O)C[C@H](NC(=O)CN1CCc2ccccc2C1=O)C(=O)CNS(=O)(=O)c1ccccc1` [Example 5a, 3-(1,2,3,4,-Tetrahydro-1-oxo-isoquinoline-2-yl)acetamino-5-benzenesulfonyl amino-4-oxo-pentanoic acid] displayed a Ki in assay [1] of 105 µM. Also, the IC50 in assay [2] was found to be 586 µM.
`O=C(O)CC(NC(=O)OCc1ccccc1)C(=O)CNS(=O)(=O)CC1(F)c2ccccc2-c2ccccc21` (stereo not shown) [Example 2k, 3-Benzyloxycarbonylamino-5-(9-fluoro-9H-fluoren-9-ylmethanesulfonylamino)-4-oxo-pentanoic acid] had an inhibition constant Ki in assay [1] of 22 µM.
`CC1(C)C2CCC1(CS(=O)(=O)NCC(=O)[C@@H](CC(=O)O)NC(=O)OCc1ccccc1)CC2` [Example 2m, (R)-3-Benzyloxycarbonylamino-5-(7,7-dimethyl-bicyclo[2.2.1]hept-1-ylmethane-sulfonylamino)-4-oxo-pentanoic acid] yielded a Ki in assay [1] of 2.8 µM. Moreover, the half-inhibitory concentration (IC50) in assay [2] turned out to be 35.3 µM.
In the same order, the values of `O=C(O)CC(NC(=O)OCc1ccccc1)C(=O)CNS(=O)(=O)c1ccccc1` (stereo not shown) [Example 2d, 5-Benzenesulfonylamino-3-benzyloxycarbonylamino-4-oxo-pentanoic acid] are 37 µM and 291 µM.
In the same order, the values of `O=C(O)CC(NC(=O)CN1CCc2ccccc2C1=O)C(=O)CNS(=O)(=O)Cc1ccccc1` (stereo not shown) [Example 5d, 4-Oxo-3-[2-(1-oxo-3,4-dihydro-1H-isoquinolin-2-yl)-acetylamino]-5-phenylmethanesulfonylamino-pentanoic acid] are 27 µM and 234 µM.
